According to US20220304950A1, “[…] THE TREATMENT OF PATIENTS WITH MAJOR DEPRESSIVE DISORDER, INCLUDING SUICIDALITY” (JANSSEN PHARMACEUTICALS, INC., priority 2019, published 2022):

Columns and labels:
Type in all cases: in vivo, human
[1] = system: adult patients with MDD assessed to be at imminent risk for suicide; experiment: CGI-SS-R (SIBAT), Study 1 (Example 4); conditions: 24 hours post first dose; for CGI-SS-R change, Hodges-Lehmann Est. of Treatment Diff. (95% CI): Esk 84 mg + SOC vs placebo + SOC
From the text: The SIBAT is a suicide assessment tool that captures suicidal ideation and behavior(s) as reported by patients and reviewed by clinicians permitting efficient collection and documentation of clinical impression of severity of suicidality and imminent and long-term suicide risk and treatment plans.
The CGI-SS-R rating is scored on a 7-point scale from 0 (normal, not at all suicidal) to 6 (among the most extremely suicidal patients) and will be based on the totality of information available to the clinician, including information from the SIBAT. The CGI-SS-R summarizes the clinician's overall impression of severity of suicidality and will be used to assess the key secondary endpoint in this study. This rating operates like numerous other CGI-severity scales that have been used in other psychiatric studies. These instruments have shown clinical validity and sensitivity to change.
Change in CGI-SS-R from baseline to 24 hours post first dose (Day 2). The CGI-SS-R, derived from the Suicidal Ideation and Behavior Assessment Tool (SIBAT) rating is scored on a 7-point scale from 0 (normal, not at all suicidal) to 6 (among the most extremely suicidal patients).

[2] = system: adult patients with MDD assessed to be at imminent risk for suicide; experiment: MADRS total score, Study 2 (Example 5); conditions: 24 hours post first dose
From the text: The primary efficacy evaluation will be the MADRS total score. The MADRS will be performed using the Structured Interview Guide for the Montgomery Asberg Depression Rating Scale. The MADRS is a clinician-rated scale designed to be used in subjects with MDD to measure depression severity and detect changes due to antidepressant treatment. The test consists of 10 items, each of which is scored from 0 (item not present or normal) to 6 (severe or continuous presence of the symptoms), for a total possible score of 60. Higher scores represent a more severe condition. The MADRS evaluates apparent sadness, reported sadness, inner tension, sleep, appetite, concentration, lassitude, interest level, pessimistic thoughts, and suicidal thoughts.
The typical recall period for the MADRS is 7 days. In this study, the MADRS will also be administered using a since last assessment recall, a 4-hour recall on Day 1 and Day 25 postdose, and a 24-hour recall on Day 2. For the MADRS performed at 4 hours postdose on Days 1 and 25, the MADRS scores for the sleep item recorded predose on the same day will be carried forward.
The primary objective is to compare the efficacy of ESK+SOC to that of PBO+SOC in reducing the symptoms of MDD, including suicidal ideation, as measured by the change from baseline on the MADRS total score at 24 hours post-first dose. […]
Primary efficacy variable/Primary timepoint: Change in MADRS total score from baseline to 24 hours post first dose (Day 2). The MADRS consists of 10 items that cover all of the core depressive symptoms: each item is scored from 0 (symptom is not present or is normal) to 6 (severe or continuous presence of the symptom). A total score (0 to 60) is calculated by summing the scores of all 10 items. […]

[3] = system: adult patients with MDD assessed to be at imminent risk for suicide; experiment: Adverse events (TEAEs, SAEs), Study 2 (Example 5)
Procedure: The primary objective is to compare the efficacy of ESK+SOC to that of PBO+SOC in reducing the symptoms of MDD, including suicidal ideation, as measured by the change from baseline on the MADRS total score at 24 hours post-first dose.

[4] = system: adult patients with MDD assessed to be at imminent risk for suicide; experiment: MADRS subgroup analysis by prior suicide attempt, pooled Examples 4 and 5; conditions: 24 hours after the first dose
Procedure: FIG. 11 is a forest plot for the MADRS at 24 hours post first dose: subgroup analyses pooled analysis for Examples 4 and 5.
(§1) In certain aspects, the disclosure relates to methods for reducing symptoms of major depressive disorder, including suicidality, in a human patient assessed to be at imminent risk for suicide comprising the administration of esketamine in addition to standard of care treatment. As reflected in the reported data, for depressive symptoms, the treatment differences favored the administration of esketamine plus standard of care treatment over standard of care treatment alone. In addition, treatment differences between patients that previously attempted suicide (attempters) and those that had not (non-attempters) were also present (see, e.g., data reflected in FIGS. 9-17). […] Improvement in this population is of clinical relevance considering that prior suicide attempt has been identified as the single most important predictor/risk factor for suicide in subjects with MDD.

[5] = system: adult patients with MDD assessed to be at imminent risk for suicide; experiment: CGI-SS-R subgroup analysis by prior suicide attempt, Examples 4 and 5; conditions: 24 hours after the first dose
From the text: FIG. 17 is a forest plot for the prior suicide attempt sub-group analysis using CGI-SS-R for Examples 4 and 5.
as §1

[6] = esketamine 84 mg+SOC, double-blind phase
[7] = esketamine 84 mg+SOC, safety set

CN[C@]1(c2ccccc2Cl)CCCCC1=O [esketamine, (S)-2-(2-chlorophenyl)-2-(methylamino)cyclohexanone]
CGI-SS-R change, Hodges-Lehmann Est. of Treatment Diff. (95% CI) [1]: 0.0 (−1.00; 0.00)
CGI-SS-R change, Hodges-Lehmann Est. of Treatment Diff. (95% CI) ([1]; listed as Esk): 0.0
CGI-SS-R score, Day 2 (DB) LOCF, median ([1]; Esk 84 mg + SOC): 2.0
CGI-SS-R score, change from baseline to Day 2 (LOCF), median (range) ([1]; Esk 84 mg + SOC): −1.0 (−6; 2)
CGI-SS-R score, change from baseline to Day 2 (LOCF), median (range) ([1]; Esk 84 mg + SOC, listed as Esk): −1.0
Effect size for the primary endpoint (MADRS) [2]: 0.35
MADRS total score change, least-square mean difference (SE) vs placebo+SOC ([2]; ANCOVA LOCF): −3.9 (1.39)
MADRS total score, change from baseline to Day 2 (LOCF), mean (SD) ([2]; esketamine 84 mg+SOC): −15.7 (11.56)
Deaths during the study [3]: no deaths
Psychiatric SAEs related to suicidal ideation, suicide attempt, or worsening of depression, participants ([3]; ESK+SOC, 9-week follow-up phase): 9
SAE depersonalization/derealization disorder, participants ([3]; ESK+SOC, double-blind phase): 1
SAE suicidal ideation, participants ([3]; ESK+SOC, double-blind phase): 1
SAEs: suicide attempts, number ([3]; ESK+SOC, double-blind phase): 3
SAE acute stress disorder, participants ([3]; ESK+SOC, follow-up phase): 1
SAE depression-related event, participants ([3]; ESK+SOC, follow-up phase): 1
SAE hemothorax, participants ([3]; ESK+SOC, follow-up phase): 1
SAEs: suicidal ideation-related events, number ([3]; ESK+SOC, follow-up phase): 3
SAEs: suicide attempts, number ([3]; ESK+SOC, follow-up phase): 4
Events in ESK+SOC participants considered related to study medication, number ([3]; ESK+SOC, kind of event not given): 17
Psychiatric SAEs related to suicidal ideation, suicide attempt, or worsening of depression, frequency ([3]; double-blind phase): < 5%
Subjects with at least one TEAE, % [3, 6]: 91.2%
Subjects with serious TEAEs, % [3, 6]: 4.4%
TEAE Dissociation, subjects % [3, 6]: 38.6%
TEAE Dizziness, subjects % [3, 6]: 41.2%
TEAE Nausea, subjects % [3, 6]: 33.3%
TEAE dysgeusia, subjects % [3, 6]: 25.4%
TEAE headache, subjects % [3, 6]: 21.9%
TEAE paraesthesia, subjects % [3, 6]: 20.2%
TEAE somnolence, subjects % [3, 6]: 22.8%
Subjects with serious AEs, % ([3]; esketamine 84 mg+SOC, follow-up phase): 10.1%
Study medication permanently stopped due to an adverse event, subjects % [3, 7]: 7.9%
Study medication permanently stopped due to an adverse event, subjects n [3, 7]: 9
Overall safety and tolerability (in words) ([3]; intranasal ESK+SOC): safe and tolerated
Estimated difference (95% CI) vs placebo+SOC in change in MADRS total score ([4]; subpopulation with prior suicide attempt (FIG. 11)): −4.81 (−7.26; −2.36)
Estimated difference (95% CI) vs placebo+SOC in change in MADRS total score ([4]; subpopulation without prior suicide attempt (FIG. 11)): −2.32 (−5.54; 0.91)
Odds ratio (95% CrI) for an improved CGI-SS-R score relative to placebo+SOC ([5]; subjects with history of prior suicide attempt (FIG. 17)): 2.09 (1.06; 4.23)
Odds ratio (95% CrI) for an improved CGI-SS-R score relative to placebo+SOC ([5]; subpopulation without prior suicide attempt (FIG. 17)): 1.14 (0.46; 2.83)
